Test results reported in patent US8410106B2, “Hydrazine-substituted anthranilic acid derivatives” (Bayer Cropscience AG, priority 2010, dated 2013).
Where two headings read alike, the source gives them in different places.

Key:
[1] = tested on: caterpillars of the army worm (Spodoptera frugiperda); experiment: Spodoptera frugiperda test (SPODFR spray treatment); format: in vivo; settings: foliar, 168 h, read-out: activity (caterpillars killed)
[2] = logP determination by HPLC on reversed-phase columns (C 18), EEC Directive 79/831 Annex V.A8; format: physicochemical
[3] = tested on: larvae of the mustard beetle (Phaedon cochleariae); experiment: Phaedon test (PHAECO spray treatment); settings: in Brassica rapa, foliar, 168 h, read-out: activity (beetle larvae killed)
[4] = tested on: green peach aphid (Myzus persicae); experiment: Myzus test (MYZUPE spray treatment); format: in vivo; settings: foliar, 144 h, read-out: activity (aphids killed)
Procedure: After 6 days the activity is determined, in %.

[5] = application rate 100 g/ha, after 7 days, maize leaf discs, spray
[6] = HPLC, reversed-phase C 18, table value without method mark, read-out: logP
[7] = application rate 100 g/ha, after 6 days, Chinese cabbage leaf discs, spray

COC(=O)N(C)NC(=O)c1cc(Cl)cc(C)c1NC(=O)c1cc(Cn2nnnc2C(F)F)nn1-c1ncccc1Cl [Example 46] gave a pest or weed control at 100 g/ha ([1]; in Zea mays) of 100%, a chromatographic logP [2] of 2.25 and a pest or weed control at 100 g/ha [3] of 100%. For the same molecule, the pest or weed control at 100 g/ha ([4]; in Brassica rapa) was 100%.
Molecule COC(=O)N(C)NC(=O)c1cc(C#N)cc(C)c1NC(=O)c1cc(Cn2cc(C(F)(F)F)nn2)nn1-c1ncccc1Cl [Example 47] has a pest or weed control at 100 g/ha ([1]; in Zea mays) of 100%, a chromatographic logP [2] of 2.3 and a pest or weed control at 100 g/ha [3] of 100%. The pest or weed control at 100 g/ha ([4]; in Brassica rapa) was 90%.
With COC(=O)N(C)NC(=O)c1cc(Cl)cc(C)c1NC(=O)c1cc(Cn2cnc(C(F)(F)F)c2C(F)(F)F)nn1-c1ncccc1Cl [Example 48] the pest or weed control at 100 g/ha [1, 5] was 100%, the chromatographic logP [2, 6] was 3.08 and the pest or weed control at 100 g/ha [3] was 100%. The pest or weed control at 100 g/ha [4, 7] was 100%.
Molecule COC(=O)N(C)NC(=O)c1cc(I)cc(C)c1NC(=O)c1cc(Cn2cnc(C(F)(F)F)c2C(F)(F)F)nn1-c1ncccc1Cl [Example 49] has a pest or weed control at 100 g/ha [1, 5] of 100%, a chromatographic logP [2, 6] of 3.26 and a pest or weed control at 100 g/ha [3] of 100%. For the same molecule, the pest or weed control at 100 g/ha [4, 7] was 100%.
With COC(=O)N(C)NC(=O)c1cc(Cl)cc(C)c1NC(=O)c1cc(Cn2nc(C(F)F)cc2C(F)F)nn1-c1ncccc1Cl [Example 50] the pest or weed control at 100 g/ha ([1]; in Zea mays) was 100%, the chromatographic logP [2] was 2.91 and the pest or weed control at 100 g/ha [3] was 100%. It also gave a pest or weed control at 100 g/ha ([4]; in Brassica rapa) of 100%.
COC(=O)N(C)NC(=O)c1cc(I)cc(C)c1NC(=O)c1cc(Cn2nnc(C(F)(F)F)n2)nn1-c1ncccc1Cl [Example 51] gave a pest or weed control at 100 g/ha ([1]; in Zea mays) of 100%, a chromatographic logP [2] of 3.15 and a pest or weed control at 100 g/ha [3] of 100%. It also gave a pest or weed control at 100 g/ha ([4]; in Brassica rapa) of 100%.
For COC(=O)N(C)NC(=O)c1cc(Cl)cc(C)c1NC(=O)c1cc(Cn2nnc(C(F)(F)C(F)(F)F)n2)nn1-c1ncccc1Cl [Example 52], the pest or weed control at 100 g/ha ([1]; in Zea mays) was 100%, the chromatographic logP [2] was 3.32 and the pest or weed control at 100 g/ha [3] was 100%. The pest or weed control at 100 g/ha ([4]; in Brassica rapa) was 100%.
COC(=O)N(C)NC(=O)c1cc(Br)cc(C)c1NC(=O)c1cc(Cn2nnc(C(F)(F)C(F)(F)F)n2)nn1-c1ncccc1Cl [Example 53] showed a pest or weed control at 100 g/ha ([1]; in Zea mays) of 100%, a chromatographic logP [2] of 3.4 and a pest or weed control at 100 g/ha [3] of 100%. For the same molecule, the pest or weed control at 100 g/ha ([4]; in Brassica rapa) was 100%.
In the case of COC(=O)NNC(=O)c1cc(Cl)cc(C)c1NC(=O)c1cc(Cn2nnc(C(F)(F)C(F)(F)C(F)(F)F)n2)nn1-c1ncccc1Cl [Example 54], the pest or weed control at 100 g/ha ([1]; in Zea mays) is reported as 100%, the chromatographic logP [2, 6] is reported as 3.41 and the pest or weed control at 100 g/ha [3] is reported as 100%. For the same molecule, the pest or weed control at 100 g/ha ([4]; in Brassica rapa) was 90%.
COC(=O)N(C)NC(=O)c1cc(C(F)(F)F)cc(C)c1NC(=O)c1cc(Cn2nnc(C(F)(F)F)n2)nn1-c1ncccc1Cl [Example 60] showed a pest or weed control at 100 g/ha ([1]; in Zea mays) of 100%, a chromatographic logP [2] of 3.17 and a pest or weed control at 100 g/ha [3] of 100%. For the same molecule, the pest or weed control at 100 g/ha ([4]; in Brassica rapa) was 100%.
COC(=O)N(C)NC(=O)c1cc(C(F)(F)F)cc(C)c1NC(=O)c1cc(Cn2nnc(C(F)(F)C(F)(F)F)n2)nn1-c1ncccc1Cl [Example 61] gave a pest or weed control at 100 g/ha [1, 5] of 100%, a chromatographic logP [2, 6] of 3.55 and a pest or weed control at 100 g/ha [3] of 100%. For the same molecule, the pest or weed control at 100 g/ha [4, 7] was 90%.
With COC(=O)N(C)NC(=O)c1cc(C#N)cc(C)c1NC(=O)c1cc(Cn2nc(C(F)F)cc2C(F)F)nn1-c1ncccc1Cl [Example 63] the pest or weed control at 100 g/ha ([1]; in Zea mays) was 100%, the chromatographic logP [2] was 2.59 and the pest or weed control at 100 g/ha [3] was 100%. It also gave a pest or weed control at 100 g/ha ([4]; in Brassica rapa) of 100%.
COC(=O)N(C)NC(=O)c1cc(Cl)cc(Cl)c1NC(=O)c1cc(Cn2nc(C(F)(F)F)cc2C)nn1-c1ncccc1Cl [Example 66] gave a pest or weed control at 100 g/ha ([1]; in Zea mays) of 100%, a chromatographic logP [2] of 3.1 and a pest or weed control at 100 g/ha [3] of 100%. It also gave a pest or weed control at 100 g/ha ([4]; in Brassica rapa) of 100%.
Work on COC(=O)N(C)NC(=O)c1cc(Cl)cc(C)c1NC(=O)c1cc(Cn2nc(C(F)(F)C(F)(F)C(F)(F)F)cc2C)nn1-c1ncccc1Cl [Example 68] yielded a pest or weed control at 100 g/ha ([1]; in Zea mays) of 100%, a chromatographic logP [2, 6] of 3.82 and a pest or weed control at 100 g/ha [3] of 100%. It also gave a pest or weed control at 100 g/ha ([4]; in Brassica rapa) of 100%.
Molecule COC(=O)N(C)NC(=O)c1cc(I)cc(C)c1NC(=O)c1cc(Cn2cnc(C(F)(F)F)n2)nn1-c1ncccc1Cl [Example 69] has a pest or weed control at 100 g/ha ([1]; in Zea mays) of 100%, a chromatographic logP [2] of 2.71 and a pest or weed control at 100 g/ha [3] of 100%. For the same molecule, the pest or weed control at 100 g/ha ([4]; in Brassica rapa) was 100%.
Work on COC(=O)N(C)NC(=O)c1cc(I)cc(C)c1NC(=O)c1cc(Cn2nnnc2C(F)(F)F)nn1-c1ncccc1Cl [Example 72] yielded a pest or weed control at 100 g/ha ([1]; in Zea mays) of 100%, a chromatographic logP [2] of 2.78 and a pest or weed control at 100 g/ha [3] of 100%. The pest or weed control at 100 g/ha ([4]; in Brassica rapa) was 100%.
COC(=O)N(C)NC(=O)c1cc(C#N)cc(C)c1NC(=O)c1cc(Cn2nnc(C(F)(F)C(F)(F)F)n2)nn1-c1ncccc1Cl [Example 73] showed a pest or weed control at 100 g/ha [1, 5] of 100%, a chromatographic logP [2, 6] of 2.97 and a pest or weed control at 100 g/ha [3] of 100%. It also gave a pest or weed control at 100 g/ha [4, 7] of 100%.
In the case of COC(=O)N(C)NC(=O)c1cc(I)cc(C)c1NC(=O)c1cc(Cn2nnc(C(F)F)n2)nn1-c1ncccc1Cl [Example 74], the pest or weed control at 100 g/ha ([1]; in Zea mays) is reported as 100%, the chromatographic logP [2] is reported as 2.64 and the pest or weed control at 100 g/ha [3] is reported as 100%. For the same molecule, the pest or weed control at 100 g/ha ([4]; in Brassica rapa) was 100%.
